Data reported in patent publication US12286455B2, “Anthelmintic depsipeptide compounds” (BOEHRINGER INGELHEIM ANIMAL HEALTH USA INC., priority 2015, dated 2025).

Assays:
[1] = tested on: Dirofilaria immitis R isolate (reduced sensitivity to macrocyclic lactones); experiment: Method D study 1: efficacy against induced D. immitis infection in beagle dogs (R isolate); type: in vivo; conditions: beagles
[2] = tested on: Dirofilaria immitis S isolate (sensitive to macrocyclic lactones); experiment: Method D study 2: efficacy against induced D. immitis infection in beagle dogs (S isolate); type: in vivo; conditions: beagles
[3] = oral solution 2.5 mg/kg + ivermectin 6 μg/kg, days 0, 32, 60, 90 & 119, necropsy Day 150

Compound | Efficacy [1, 3] [%] | also measured
CC(C)C[C@H]1C(=O)O[C@H](C)C(=O)N(C)[C@@H](CC(C)(C)F)C(=O)O[C@H](Cc2ccc(C(F)(F)F)cc2)C(=O)N(C)[C@@H](CC(C)C)C(=O)O[C@H](C)C(=O)N(C)[C@@H](CC(C)(C)F)C(=O)O[C@H](Cc2ccc(C(F)(F)F)cc2)C(=O)N1C [Compound 4-18] | 100 | 
CC(C)C[C@H]1C(=O)O[C@H](C)C(=O)N(C)[C@@H](CC(C)(C)F)C(=O)O[C@H](Cc2ccc(N3CCOCC3)cc2)C(=O)N(C)[C@@H](CC(C)C)C(=O)O[C@H](C)C(=O)N(C)[C@@H](CC(C)(C)F)C(=O)O[C@H](Cc2ccc(N3CCOCC3)cc2)C(=O)N1C [Compound 6-18] | 100 | 
CC(C)C[C@H]1C(=O)O[C@H](C)C(=O)N(C)[C@@H](CC(C)(C)F)C(=O)O[C@H](Cc2ccc(C3CCOCC3)cc2)C(=O)N(C)[C@@H](CC(C)C)C(=O)O[C@H](C)C(=O)N(C)[C@@H](CC(C)(C)F)C(=O)O[C@H](Cc2ccc(C3CCOCC3)cc2)C(=O)N1C [Compound 7-18] |  | Efficacy ([1]; oral solution 1.0 mg/kg + ivermectin 6 μg/kg, days 0, 32, 60, 90 & 119, necropsy Day 150): 100%; Efficacy ([2]; oral solution 0.5 mg/kg, days 0, 30, 60, 90 & 120, necropsy Day 155): 100%; Efficacy ([2]; oral solution 2.5 mg/kg, days 0, 30, 60 & 154, necropsy Day 155): 100%
CC(C)C[C@H]1C(=O)O[C@H](Cc2ccc(C3CCOCC3)cc2)C(=O)N(C)[C@@H](CC(C)C)C(=O)O[C@H](C)C(=O)N(C)[C@@H](CC(C)C)C(=O)O[C@H](Cc2ccc(C3CCOCC3)cc2)C(=O)N(C)[C@@H](CC(C)C)C(=O)O[C@H](C)C(=O)N1C [Compound 7-27] | 100 | 
CC(C)C[C@H]1C(=O)O[C@H](Cc2ccc(N3CCOCC3)cc2)C(=O)N(C)[C@@H](CC(C)C)C(=O)O[C@H](C)C(=O)N(C)[C@@H](CC(C)C)C(=O)O[C@H](Cc2ccc(N3CCOCC3)cc2)C(=O)N(C)[C@@H](CC(C)C)C(=O)O[C@H](C)C(=O)N1C [emodepside, reference compound] | 98.8 | Efficacy ([1]; oral solution 2.5 mg/kg + ivermectin 6 μg/kg, days 0, 32, 60, 90 & 119, necropsy Day 150, listed as Emodepside): 98.8%
